Laboratory results from patent US20180085356A1, “METHOD OF TREATING DISEASE CHARACTERISED BY PROTEIN AGGREGATE DEPOSITION IN NEURONAL CELLS” (CHRONOS THERAPEUTICS LIMITED, priority 2013, published 2018).
Like-named read-outs stand apart in the source and are kept apart here.

Tests used:
[1] = test system: C. elegans expressing 35 polyglutamine tract fused to YFP (Q35) in the body wall muscle; assay: C. elegans lifespan assay, polyglutamine Q35 strain; type: in vivo, Caenorhabditis elegans; details: p<0.05 vs. Q35 DMSO
Description: (§1) Tacrolimus was tested in a number of disease models using the nematode worm, Caenorhabditis elegans, in which aggregate-prone proteins associated with neurodegenerative diseases are expressed in certain cell types. The effect of tacrolimus was determined by measuring the lifespan of worms in the presence and absence of tacrolimus, using the following general methodology. All of the worms tested using these assays also contained, in addition to the transgene expressing the disease-related protein, a mutation in the bus-5 gene which confers drug-sensitivity.
(§2) C. elegans cultures were synchronised by incubating an asynchronous culture in basic sodium hypochlorite solution to kill everything but the bleach-resistant mature eggs. The eggs were added on to agar plates and then allowed to hatch and develop in the presence of the test compound (or vehicle) and bacterial food source. […] From this point on, each ageing population was inspected at regular intervals (e.g. daily) and viability assessed by counting the number of dead worms.
(§3) The cumulative number of dead worms for each population was used to generate a survival/viability plot to determine chronological lifespan (CLS). Survival was analysed using the Kaplan-Meier log-rank survival analysis method, using the Online Application for Survival (OASIS; see http://sbi.postech.ac.kr/oasis). […]

[2] = Tacrolimus blood levels in healthy human volunteers given capsule; type: in vivo; details: oral
Description: A hard gelatine capsule was filled with the following composition:
One capsule as above containing 0.3 mg tacrolimus was administered daily to healthy human volunteers for three successive days. […] Similarly, no change in TNF-α levels occurred as a result of administering 0.6 mg daily of tacrolimus to healthy volunteers. The average trough level of tacrolimus (level after 24 hours of administration of each dose) observed was approximately 220 pg/ml.

[3] = test system: unilaterally 6-OHDA-lesioned rats; assay: Amphetamine-induced rotational asymmetry in unilaterally 6-OHDA-lesioned rats; type: in vivo, rat; details: 1 mg/kg s.c. 6 days/week, by 6 months, compared to baseline; p<0.05 vs. vehicle at 6 months
Text: The objective of this study was to investigate the effect of chronic subcutaneous (s.c) tacrolimus treatment in an aged rat model of Parkinson's disease. Lesion of dopaminergic projections was created by unilateral injection of 6-hydroxydopamine (6-OHDA) in the right medial forebrain bundle (MFB), causing a widespread de-afferentation of substantia nigra pars compacta (SNc) and ventral tegmental area (VTA) terminal fields. The animals can then be monitored for amphetamine-induced rotation asymmetry behaviour: because the lesion is unilateral, asymmetric movement is observed. The degree to which a drug treatment is able to counteract the effects of the lesion can be measured by the reduction in the asymmetry of movement (i.e. the number of clockwise (CW) rotations vs. the number of counterclockwise (CCW) rotations). 50 female Fischer rats aged 18 months were stereotactically injected with 4 μl […] 6-OHDA into the right MFB. […] Motor asymmetry was monitored in automated rotometer bowls (TSE Systems, Germany) for 120 minutes after injection of amphetamine (2.5 mg/kg s.c.). The net rotation asymmetry score for amphetamine test was calculated by subtracting contralateral turns from the ipsilateral turns to the lesion side.

[4] = in vivo
Description: Pharmacokinetic analysis was carried out by the Applicant. […] Therefore, even accounting for species differences in pharmacokinetics, preferred oral doses of tacrolimus in humans for the treatment of ALS would be expected to be below 1.3 mg/day and are likely to be below 0.55 mg/day.
Based on pharmacokinetic analysis, an oral tacrolimus dose of 2 mg/kg/day in the mouse is believed to correspond to a human oral dose of about 0.33-0.44 mg/day for a 70 kg person.

[5] = test system: C. elegans expressing mutant human SOD-1 (127X) in the body wall muscle; assay: C. elegans lifespan assay, mutant SOD-1 strain; type: in vivo, Caenorhabditis elegans
Description: as §1
as §2, with “eggs.” for “eggs. The eggs were added on to agar plates and then allowed to hatch and develop in the presence of the test compound (or vehicle) and bacterial food source.”
as §3
The effect of tacrolimus on C. elegans expressing wild-type or mutant human SOD-1 in the body wall muscle was determined. […]

In the case of `C=CC[C@@H]1/C=C(\C)C[C@H](C)C[C@H](OC)[C@H]2O[C@@](O)(C(=O)C(=O)N3CCCC[C@H]3C(=O)O[C@H](/C(C)=C/[C@@H]3CC[C@@H](O)[C@H](OC)C3)[C@H](C)[C@@H](O)CC1=O)[C@H](C)C[C@@H]2OC` [tacrolimus, Tacrolimus], the lifespan [1] is reported as “significantly increases lifespan”, the average peak level ([2]; 0.3 mg capsule daily, three days) is reported as “approximately 3700 pg/mL” and the concentration at 24 h ([2]; human, blood, two capsules, single dose of 0.6 mg, read-out: expected trough level) is reported as about 0.44 ng/mL. The AUC ([2]; human, blood, 0.3 mg capsule daily, three days, read-out: average area under the curve AUC 0_t) was about 23.5 ng·h/mL, the concentration at 24 h ([2]; human, blood, 0.3 mg capsule daily, three days, read-out: average trough level (after 24 hours of administration of each dose)) was about 0.22 ng/mL and the amphetamine-induced rotational asymmetry [3] was “significant reduction in rotational asymmetry”. For the same compound, the “human oral dose corresponding to oral dose of 2 mg/kg/day in the mouse” value [4] was 0.44-0.33, the “increase in lifespan when bec-1 knocked down by RNAi” value ([5]; bec-1 RNAi, p>0.05 vs. bec-1 RNAi DMSO) was “virtually abolished” and the lifespan ([5]; p<0.05 DMSO vs. Tacrolimus) was “significant increase in lifespan”.
